In brackets after ≈: the same amount, converted by molar mass.
Assays:
[1] = Determination of aqueous solubility (vortex 1 h at 25 °C, centrifugation, filtration, HPLC); type: physicochemical; settings: for solubility at 1 h: thermodynamic from solid; for Aqueous solubility compared with vitexin: at different pH
Experimental: HPLC was performed with an Agilent® 1100 series HPLC system (Santa Clara, CA, USA) equipped with a gradient pump (Waters 600, Waters, Milford, MA, USA). The stationary phase was a C18 column (Sharpsil H-C18, 5 μm, 4.6 i.d. × 250 mm, Sharpsil, Bei-jing, China), and the mobile phase was 1% acetic acid in water (A) and methanol (B). The elution condition was a linear gradient from 0 min with 40% B to 20 min with 70% B; an isocratic elution from 20 min to 25 min with 70% B; a linear gradient from 25 min with 70% B to 28 min with 40% B; and an isocratic elution from 28 min to 35 min with 40% B. All elutions were performed at a flow rate of 1 mL/min. The sample volume was 10 µL. The detection condition was set at 254 nm.
The aqueous solubility of vitexin and its glucoside derivatives was examined as follows. Each compound was vortexed in double-deionized H2O, PB at pH 6, or pH 8, for 1 h at 25 °C. The mixture was centrifuged at 10,000× g for 30 min at 25 °C. The supernatant was filtered through a 0.2 µm nylon membrane, mixed with an equal volume of methanol, and analyzed by HPLC. The concentration of the tested compounds was determined on the basis of their peak areas, using calibration curves prepared by HPLC analyses of authentic samples.

[2] = parameters: method as in PMID 32292045; settings: poor bioavailability; cited from earlier work
[3] = PB (buffer), aqueous buffer, PB at pH 6, 25 °C
[4] = PB (buffer), aqueous buffer, PB at pH 8, 25 °C
[5] = double-deionized water, water, Deionized H2O at pH 7, 25 °C

SMILES | Fold increase in aqueous solubility relative to vitexin in deionized H2O (normalized to 1) ([1]; Deionized H2O at pH 7) | solubility at 1 h [1, 3] | solubility at 1 h [1, 4] | Fold increase in aqueous solubility relative to vitexin in deionized H2O (normalized to 1) ([1]; PB at pH 6) | Fold increase in aqueous solubility relative to vitexin in deionized H2O (normalized to 1) ([1]; PB at pH 8) | solubility at 1 h [1, 5] | Absorption in the gastrointestinal tract [2] | Aqueous solubility compared with vitexin [1]
O=c1cc(-c2ccc(O)cc2)oc2c([C@@H]3O[C@H](CO)[C@@H](O)[C@H](O)[C@H]3O)c(O)cc(O)c12 [Vitexin, apigenin-8-C-glucoside] | 1 | 7.1 ± 1.2 µg/mL (≈ 16.4 µM) | 157 ± 3.1 µg/mL (≈ 364 µM) | 0.2 | 4.2 | 37.2 ± 2.8 µg/mL (≈ 86 µM) | approximately 5% | –
O=c1cc(-c2ccc(OC3OC(CO)C(O)C(O)C3O)cc2)oc2c(C3OC(CO)C(O)C(O)C3O)c(O)cc(O)c12 (stereo not drawn) [Vitexin-4′-O-β-glucoside (1), vitexin-4′-O-β-glucoside] | 25.3 | 943 ± 212 µg/mL (≈ 1590 µM) | 1800 ± 229 µg/mL (≈ 3030 µM) | 25.3 | 48.4 | 941 ± 68.7 µg/mL (≈ 1580 µM) | – | higher than that of vitexin
O=c1cc(-c2ccc(O)cc2)oc2c(C3OC(CO)C(O)C(O)C3O)c(O)cc(OC3OC(CO)C(O)C(O)C3O)c12 (stereo not drawn) [Vitexin-5-O-β-glucoside (2), vitexin-5-O-β-glucoside] | – | 444 ± 45 µg/mL (≈ 747 µM) | 767 ± 21.6 µg/mL (≈ 1290 µM) | 11.9 | 20.6 | 735 ± 51.7 µg/mL (≈ 1240 µM) | – | higher than that of vitexin
